Test results as given in patent publication US11427569B2, “Benzoimidazole indolyl methanes and methods of using them to inhibit PCKS9 and PCKS9-mediated ailments” (Wisconsin Alumni Research Foundation, priority 2019, dated 2022).
Values joined by “and” are separate entries in the source; they are usually repeats but may differ in a detail not shown here. Equal values may be shown once.

Biological target: T1, PCSK9 (Homo sapiens, UniProt Q8NBP7)
T1 construct: endogenous in cells; host or cells: HepG2 (ATCC HB-8065)
Test: ELISA of secreted (extracellular, medium) PCSK9 in HepG2 cells
Type: cell-based
Details: for Activity at 1 μM (% of remaining PCSK9): 1 μM compound; for Activity at 1 μM (% of remaining PCSK9) / Activity at 10 μM (% of remaining PCSK9): HepG2 cells, DMSO = 100%; for Activity at 10 μM (% of remaining PCSK9): 10 μM compound; for IC50: dose-response curves, extracellular PCSK9, cultured HepG2 cells (FIG. 4)
Procedure: The human hepatoma cell line, HepG2, was cultured and maintained in low glucose Dulbecco's modified Eagle's medium (DMEM) supplemented with 10% fetal bovine serum (FBS) and 1% penicillin, streptomycin solution. (ATCC HB-8065, American Type Culture Collection, Manassas, Va.) The medium was further supplemented with 1% each of nonessential amino acids (NEAA), sodium pyruvate and L-glutamine.
Freshly cultured HepG2 cells were harvested from vacuum gas plasma-treated T75 cell culture flasks and plated onto vacuum gas plasma-treated clear 12 or 96 well plates (Fisher Scientific, Waltham, Mass. catalog nos. 353072 and 353043, respectively) at 70% confluent in 1000 μl/well or 200 μl/well of growth medium respectively. Cell plates were incubated overnight at 37° C. and 5% CO2 prior to compound treatment. For screening experiments, compounds at an initial concentration of 20 mM in 100% DMSO were diluted to different concentrations in growth medium.
For the generation of dose-response curves, compounds at an initial concentration of 20 mM in 100% DMSO were diluted to 30 μM in growth medium. The 30 μM solutions were then serially diluted 10-fold to achieve final concentration of 30 μM, 3 μM, 0.3 μM, 0.03 μM, and 0.003 μM in assay medium. Growth medium was aspirated from the plated cells and medium containing compound was added to the appropriate well. Cells were allowed to incubate for 24 h or 48 h at 37° C. and 5% CO2. Medium was collected from cells and centrifuged at 14,000 rpm for five min. The upper 50% of spun medium was collected and frozen for later analysis. The remaining cells were washed twice with 1000 μl/well or 200 μl/well cold phosphate buffered saline (PBS) at pH 7.4 and placed on ice. Cells were treated with 100 μl/well or 60 μl/well of lysis buffer comprised of 50 mM Tris, pH 8; 1% NP-40; 150 mM NaCl; 1 mM EDTA (purchased from Cell Signaling Technology, Inc., Danvers, Mass., catalog no. 9803) containing 1 mM phenylmethane sulfonyl fluoride (PMSF) and Roche protease inhibitor cocktail (available from Sigma-Aldrich, St. Louis, Mo.). Cells were allowed to incubate in lysis buffer on ice for 30 min. Cells were then collected and frozen overnight. Cells were centrifuged the next day at 14,000 rpm for 15 min. The supernatant was collected and analyzed for total protein or PCSK9 concentration.
Inhibition of secreted PCSK9 was measured in human hepatocellular carcinoma (HepG2) cells using a PCSK9 Quantikine®-brand ELISA kit purchased from R&D Systems, a wholly owned subsidiary of Bio-Techne Corporation, Minneapolis, Minn. (“Human Proprotein Convertase 9/PCSK9 Quantikine® ELISA Kit,” catalog #DPC900). The protocol provided in the kit was followed. Briefly, PCSK9 standards were prepared according to the instructions provided with the kit at final concentrations of 40 ng/mL, 20 ng/mL, 10 ng/mL, 5 ng/mL, 2.5 ng/mL, 1.25 ng/mL, 0.625 ng/mL and 0 ng/mL. The ELISA was conducted with the provided capture antibody-coated 96-well plate. Assay diluent was added to all relevant wells at a volume of 100 μL. 50 μL of sample (medium or cell lysate) or PCSK9 standard (in duplicate) was then added to the appropriate well. The plate was allowed to incubate for 2 h at room temperature. All wells were aspirated and washed four times with 300 μl of wash buffer. After washing, 200 μL of anti-PCSK9-HRP conjugate was added to all wells and the plate was allowed to incubate at room temperature for 2 h. After incubation all wells were aspirated and washed again four times with 300 μL of washing buffer.
After washing was completed, 200 μL of freshly prepared colorimetric reagent was added to all wells and the plate was incubated at room temperature in the dark for 30 min. After this final incubation a stop solution of 1N sulfuric acid was added to all wells, at which point absorbance was measured using a Tecan Infinite M1000 microplate reader at a wavelength of 450 nm (background absorbance was corrected by subtracting the absorbance measured at 540 nm). […]

T1 sequence (Q8NBP7 153-692): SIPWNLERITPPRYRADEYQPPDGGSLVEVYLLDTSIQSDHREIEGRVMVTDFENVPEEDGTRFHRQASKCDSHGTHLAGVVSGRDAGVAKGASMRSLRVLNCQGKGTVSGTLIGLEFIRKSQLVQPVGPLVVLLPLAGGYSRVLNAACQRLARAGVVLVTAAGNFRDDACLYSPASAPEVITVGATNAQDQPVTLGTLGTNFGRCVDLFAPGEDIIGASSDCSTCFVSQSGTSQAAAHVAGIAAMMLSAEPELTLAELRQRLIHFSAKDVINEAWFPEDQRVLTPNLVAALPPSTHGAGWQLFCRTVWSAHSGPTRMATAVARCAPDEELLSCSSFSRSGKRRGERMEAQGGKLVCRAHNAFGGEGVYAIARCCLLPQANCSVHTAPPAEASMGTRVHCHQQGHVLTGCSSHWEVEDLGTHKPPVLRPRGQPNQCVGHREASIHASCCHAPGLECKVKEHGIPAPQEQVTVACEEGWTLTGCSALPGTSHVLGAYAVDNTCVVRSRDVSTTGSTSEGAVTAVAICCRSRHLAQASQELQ

Row | Activity at 1 μM (% of remaining PCSK9) | Activity at 10 μM (% of remaining PCSK9) | IC50 [nM] | Structure (SMILES)
1 | 88% and 69% | 54% and 51% |  | COc1ccc2cc3[n+](cc2c1OC)CCc1cc2c(cc1-3)OCO2 [BBR, berberine, reference compound]
2 | 46% and 40% |  |  | Fc1ccc2[nH]c(Cc3c[nH]c4c(F)cccc34)nc2c1 [HX81]
3 | 75% | 31% |  | Fc1ccc2nc(Cc3c[nH]c4c(F)cccc34)n(Cc3ccccc3)c2c1 [HX178]
4 | 62% | 48% |  | Fc1ccc2nc(Cc3c[nH]c4c(F)cccc34)n(CCc3ccccc3)c2c1 [HX179]
5 | 60% | 33% |  | Fc1ccc2nc(Cc3c[nH]c4c(F)cccc34)n(Cc3ccncc3)c2c1 [HX181]
6 | 86% | 89% |  | Fc1ccc2nc(Cc3c[nH]c4c(F)cccc34)n(Cc3cccnc3)c2c1 [HX182]
7 | 70% | 27% |  | OCCn1c(Cc2c[nH]c3c(F)cccc23)nc2ccc(F)cc21 [HX183]
8 | 34% | 10% |  | Cn1c(Cc2c[nH]c3c(F)cccc23)nc2ccc(F)cc21 [HX184]
9 | 65% | 42% |  | CC(C)Cn1c(Cc2c[nH]c3c(F)cccc23)nc2ccc(F)cc21 [HX185]
10 | 84% | 73% |  | CC(C)(C)Cn1c(Cc2c[nH]c3c(F)cccc23)nc2ccc(F)cc21 [HX186]
11 | 45% | 25% |  | [2H]C([2H])(c1nc2cc(F)ccc2[nH]1)c1c[nH]c2c(F)cccc12 [HX212]
12 | 28% | 26% | 0.5 | O=C(c1nc2ccc(F)cc2[nH]1)c1c[nH]c2c(F)cccc12 [HX235]
13 | 25% | 15% | 13 | O=C(c1cc2cc(F)ccc2[nH]1)c1c[nH]c2c(F)cccc12 [HX240]
14 | 25% | 13% |  | O=C(c1cc2ccccc2[nH]1)c1c[nH]c2ccccc12 [HX257]
15 | 20% | 14% |  | O=C(c1cc2ccccc2[nH]1)c1c[nH]c2c(F)cccc12 [HX258]
16 | 28% | 13% |  | O=C(c1cc2cc(F)ccc2[nH]1)c1c[nH]c2ccccc12 [HX259]
17 | 21% | 20% |  | Cn1c(C(=O)c2c[nH]c3c(F)cccc23)nc2ccc(F)cc21 [HX261]
18 | 30% | 20% |  | O=C(c1nc2ccccc2[nH]1)c1c[nH]c2ccccc12 [HX262]
19 | 27% | 21% |  | O=C(c1nc2ccccc2[nH]1)c1c[nH]c2c(F)cccc12 [MF025]
20 | 59% and 50% | 17% and 13% | 44 | Fc1ccc2[nH]c(Cc3c[nH]c4c(F)cccc34)cc2c1 [compound 9577]
